Assay results reported in US20220242846A1, “ISOINDOLINONE COMPOUNDS” (Monte Rosa Therapeutics AG, priority 2019, published 2022).
Where two headings read alike, the source gives them in different places.

Legend:
[1] = biological target: T1, Full length wild-type cereblon CRBN (Homo sapiens, UniProt Q96SW2); experiment: Fluorescence polarization (FP) assay indicating cereblon binding; conditions: CRBN 80.0 nM, fluorescent probe 5 nM, FP measured after 12 hours; read-out: rFP IC50
T1 construct: Full length wild-type cereblon CRBN (80.0 nM, 10 μL) was incubated in assay buffer
How it was run: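 Full-length wild-type human CRBN (80.0 nM) preincubated 30 min at room temperature with compound (12-point curve, 300-0.937 or 3000-9.3 nM) in HEPES pH 8.0, NaCl, TCEP, Tween 20. Thalidomide-based Cy5-type probe then added at 5 nM final; FP read after 12 h (ex 590, em 675 nm), normalized to DMSO, IC50 derived.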

[2] = system: Human mammary epithelial cells (HMEC) engineered to express EGFP alone (non myc); experiment: 3D spheroid assay, non myc-HMEC (CellTiterGlo3D viability); assay type: cell-based; conditions: 120 h, 3D spheroids, 5 days with compound, read-out: Code: EC50 value in the non myc-HMEC assay
Method: (§1) 3D Spheroid Experiments—HMEC
(§2) Human mammary epithelial cells (HMEC) were engineered to express either c-myc tagged with EGFP or EGFP alone (non myc) (analogous but distinct from Kessler J D et al, Science. 2012 Jan. 20; 335(6066):348-53. doi: 10.1126/science.1212728; Hsu T Y et al, Nature. 2015 Sep. 17; 525(7569):384-8. doi: 10.1038/nature14985). The engineered cells were seeded at 1000 (myc) or 4000 (non myc) cells/well in a 384 ultra-low attachment plate in a total volume of 40 µL, HMEC cell culture media (DMEM/F12+10% HI-FBS+15 mM HEPES+0.5 ug/ml Hydrocortisone+10 ug/ml Insulin+20 ng/ml EGF). Plates were spun at 1200 rpm for 5 minutes at room temperature to ensure that cells have gathered in the middle of the well and incubated at 37° C. for 48 hrs before firing with compounds. On Day 2 (48 h post seeding) cells were imaged (brightfield and EGFP fluorescence) using the Celigo imaging cytometer prior to firing compounds. For primary screens, compounds were added at three concentrations (1.25, 10 and 30 uM) in a volume of 120 nL using the ECHO acoustic dispenser and spun at 2000 rpm for 2 minutes at room temperature before incubating at 37° C. for 5 days. […] On Day 7, prior to measuring cell viability using CellTiterGlo3D, cells were imaged (brightfield and EGFP fluorescence) on the Celigo imaging cytometer. The CellTiterGlo3D reagent is added at 30uL/well and incubated at room temperature for 30mins After 30mins of incubation, luminescence readings were recorded using the Perkin Elmer EnVision reader.

[3] = system: Human mammary epithelial cells (HMEC) engineered to express c-myc tagged with EGFP; experiment: 3D spheroid assay, myc-HMEC (CellTiterGlo3D viability); assay type: cell-based
Method: as §1, §2

GSPT1 = GSPT1 (Homo sapiens, UniProt P15170+Q96SW2); experiment: Immunofluorescence assay for GSPT1 degradation in CAL-51 cells; assay type: cell-based; set-up: CAL-51 cells were purchased from DSMZ (cat. Number ACC302); endogenous in cells; host or cells: CAL-51 (DSMZ ACC302); conditions: compound treatment 6 hours
How it was run: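 CAL-51 cells on fibronectin-coated plates treated 6 h with compound (30 μM to 0.1 nM); fixed, stained with anti-GSPT1/Alexa-488, phalloidin and DAPI, imaged by high-content microscopy. Mean GSPT1 intensity per cell normalized to controls; DC50 by non-linear regression.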

[4] = Homo sapiens, HMEC, 120 h, 3D spheroids, 5 days with compound, read-out: Code: EC50 value in the myc-HMEC assay
[5] = myc-HMEC 3D spheroids (compounds with code D and E), 5 days, read-out: EC50
[6] = read-out: Code: activity for GSPT1 degradation (DC50)
[7] = Homo sapiens, HMEC, 120 h, myc-HMEC 3D spheroids (compounds with code D and E), 5 days, read-out: EC50
[8] = GSPT1 degradation, read-out: DC50

Sequence of GSPT1 (P15170 whole entry): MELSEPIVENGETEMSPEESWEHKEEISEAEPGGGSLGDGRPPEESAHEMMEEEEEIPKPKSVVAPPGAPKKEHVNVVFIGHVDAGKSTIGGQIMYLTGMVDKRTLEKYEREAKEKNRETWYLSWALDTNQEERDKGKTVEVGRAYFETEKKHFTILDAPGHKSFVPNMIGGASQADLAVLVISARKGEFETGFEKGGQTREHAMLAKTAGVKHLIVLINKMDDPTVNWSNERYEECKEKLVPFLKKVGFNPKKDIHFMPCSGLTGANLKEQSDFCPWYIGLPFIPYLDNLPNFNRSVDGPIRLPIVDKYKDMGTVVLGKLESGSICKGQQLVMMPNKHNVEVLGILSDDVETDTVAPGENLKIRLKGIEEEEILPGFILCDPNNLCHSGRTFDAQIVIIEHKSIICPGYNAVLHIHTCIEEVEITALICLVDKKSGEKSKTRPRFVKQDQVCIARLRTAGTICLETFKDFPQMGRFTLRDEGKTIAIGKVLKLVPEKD
Sequence of GSPT1 (Q96SW2 whole entry): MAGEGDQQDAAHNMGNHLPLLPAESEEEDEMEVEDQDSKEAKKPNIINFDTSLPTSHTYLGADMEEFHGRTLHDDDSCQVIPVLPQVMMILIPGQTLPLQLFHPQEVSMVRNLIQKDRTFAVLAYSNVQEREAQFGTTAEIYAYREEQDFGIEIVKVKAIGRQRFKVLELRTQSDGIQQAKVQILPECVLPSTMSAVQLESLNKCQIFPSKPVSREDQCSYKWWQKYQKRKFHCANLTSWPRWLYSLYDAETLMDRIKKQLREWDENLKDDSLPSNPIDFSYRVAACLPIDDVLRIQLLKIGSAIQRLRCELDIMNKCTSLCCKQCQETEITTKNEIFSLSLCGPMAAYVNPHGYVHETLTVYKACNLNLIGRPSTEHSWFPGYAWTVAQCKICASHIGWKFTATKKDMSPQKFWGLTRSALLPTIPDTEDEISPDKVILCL
Sequence of GSPT1 (Q16531 2-1140 partner limits assumed): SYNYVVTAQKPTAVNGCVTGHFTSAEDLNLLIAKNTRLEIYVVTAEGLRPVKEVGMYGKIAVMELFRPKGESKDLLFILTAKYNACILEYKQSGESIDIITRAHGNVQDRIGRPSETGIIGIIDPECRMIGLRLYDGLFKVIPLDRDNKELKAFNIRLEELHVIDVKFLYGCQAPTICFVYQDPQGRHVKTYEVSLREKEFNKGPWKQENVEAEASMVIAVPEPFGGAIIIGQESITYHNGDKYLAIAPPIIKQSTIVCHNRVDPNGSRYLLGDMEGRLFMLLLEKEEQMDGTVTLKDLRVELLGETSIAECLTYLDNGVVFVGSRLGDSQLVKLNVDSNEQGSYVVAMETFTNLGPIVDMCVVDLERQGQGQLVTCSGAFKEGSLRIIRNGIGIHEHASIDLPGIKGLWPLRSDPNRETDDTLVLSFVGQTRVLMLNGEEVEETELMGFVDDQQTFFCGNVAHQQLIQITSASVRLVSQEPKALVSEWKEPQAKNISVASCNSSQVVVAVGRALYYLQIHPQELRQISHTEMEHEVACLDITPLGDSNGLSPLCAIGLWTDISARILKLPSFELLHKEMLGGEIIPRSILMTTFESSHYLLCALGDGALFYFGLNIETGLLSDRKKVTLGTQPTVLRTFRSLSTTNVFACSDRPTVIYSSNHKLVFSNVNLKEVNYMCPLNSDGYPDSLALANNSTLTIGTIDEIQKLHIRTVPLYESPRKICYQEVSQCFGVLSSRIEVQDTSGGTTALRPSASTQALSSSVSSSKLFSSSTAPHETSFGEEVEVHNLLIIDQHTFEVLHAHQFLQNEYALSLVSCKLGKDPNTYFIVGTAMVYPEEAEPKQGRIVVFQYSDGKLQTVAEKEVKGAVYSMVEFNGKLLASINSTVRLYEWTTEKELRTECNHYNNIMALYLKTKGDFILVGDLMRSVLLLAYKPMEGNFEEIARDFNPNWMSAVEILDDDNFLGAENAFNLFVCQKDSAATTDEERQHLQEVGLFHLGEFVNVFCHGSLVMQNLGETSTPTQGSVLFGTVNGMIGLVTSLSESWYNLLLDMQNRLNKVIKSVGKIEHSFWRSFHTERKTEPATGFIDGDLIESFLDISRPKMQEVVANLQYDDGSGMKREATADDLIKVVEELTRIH
T1 sequence (Q96SW2 whole entry): as the sequence (Q96SW2 whole entry) above

| SMILES | IC50 [1] [nM] | DC50 (GSPT1; [6]) [nM] | DC50 (GSPT1; [8]) [nM] | EC50 [2] [nM] | EC50 [3, 4] [nM] | EC50 [3, 5] [nM] | EC50 [3, 7] [nM] |
| --- | --- | --- | --- | --- | --- | --- | --- |
| Cc1cc(C)cc(NC(=O)NCc2ccc3c(c2)C(=O)N(C2CCC(=O)NC2=O)C3)c1 (stereo not drawn) [Compound 20] | 550 | ≤ 100 | – | > 10000 | 400 to 2000 | 555 | – |
| Cc1ccc(NC(=O)NCc2ccc3c(c2)C(=O)N(C2CCC(=O)NC2=O)C3)cc1 (stereo not drawn) [Compound 21] | 622 | > 300 | – | > 10000 | > 2000 | – | – |
| CCOc1ccccc1NC(=O)NCc1ccc2c(c1)C(=O)N(C1CCC(=O)NC1=O)C2 (stereo not drawn) [Compound 22] | 393 | > 300 | – | > 10000 | > 2000 | – | – |
| COc1ccc(NC(=O)NCc2ccc3c(c2)C(=O)N(C2CCC(=O)NC2=O)C3)c(C)c1 (stereo not drawn) [Compound 23] | 464 | > 300 | – | > 10000 | > 2000 | – | – |
| O=C1CCC(N2Cc3ccc(CNC(=O)NCc4ccccc4)cc3C2=O)C(=O)N1 (stereo not drawn) [Compound 24] | 1590 | > 300 | – | > 10000 | > 2000 | – | – |
| Cc1cccc(C)c1NC(=O)NCc1ccc2c(c1)C(=O)N(C1CCC(=O)NC1=O)C2 (stereo not drawn) [Compound 25] | 612 | > 300 | – | > 10000 | > 2000 | – | – |
| O=C1CCC(N2Cc3ccc(CNC(=O)NCC4CC4)cc3C2=O)C(=O)N1 (stereo not drawn) [Compound 26] | 907 | > 300 | – | > 10000 | > 2000 | – | – |
| O=C1CCC(N2Cc3ccc(CNC(=O)NCCc4ccccc4)cc3C2=O)C(=O)N1 (stereo not drawn) [Compound 27] | 444 | > 300 | – | > 10000 | > 2000 | – | – |
| O=C1CCC(N2Cc3ccc(CNC(=O)NC4CCCC4)cc3C2=O)C(=O)N1 (stereo not drawn) [Compound 28] | 814 | > 300 | – | > 10000 | > 2000 | – | – |
| O=C1CCC(N2Cc3ccc(CNC(=O)NC4CCCCC4)cc3C2=O)C(=O)N1 (stereo not drawn) [Compound 29] | 1140 | > 300 | – | > 10000 | > 2000 | – | – |
| COc1ccc(Cl)cc1NC(=O)NCc1ccc2c(c1)C(=O)N(C1CCC(=O)NC1=O)C2 (stereo not drawn) [Compound 30] | 580 | ≤ 100 | – | > 10000 | ≤ 400 | 359 | – |
| CCc1cccc(NC(=O)NCc2ccc3c(c2)C(=O)N(C2CCC(=O)NC2=O)C3)c1 (stereo not drawn) [Compound 31] | 595 | 100 to 300 | – | > 10000 | 400 to 2000 | 457 | – |
| Cc1cc(Cl)ccc1NC(=O)NCc1ccc2c(c1)C(=O)N(C1CCC(=O)NC1=O)C2 (stereo not drawn) [Compound 32] | 508 | > 300 | – | > 10000 | > 2000 | – | – |
| O=C1CCC(N2Cc3ccc(CNC(=O)Nc4cccc(Cl)c4F)cc3C2=O)C(=O)N1 (stereo not drawn) [Compound 33] | 591 | ≤ 100 | – | > 10000 | ≤ 400 | 250 | – |
| O=C1CCC(N2Cc3ccc(CNC(=O)Nc4cccc(F)c4)cc3C2=O)C(=O)N1 (stereo not drawn) [Compound 34] | 481 | > 300 | – | > 10000 | > 2000 | – | – |
| O=C1CCC(N2Cc3ccc(CNC(=O)Nc4cc(Cl)ccc4Cl)cc3C2=O)C(=O)N1 (stereo not drawn) [Compound 35] | 602 | > 300 | – | > 10000 | > 2000 | – | – |
| CCc1ccccc1NC(=O)NCc1ccc2c(c1)C(=O)N(C1CCC(=O)NC1=O)C2 (stereo not drawn) [Compound 36] | 546 | > 300 | – | > 10000 | > 2000 | – | – |

More lines, main results first:

| IC50 [1] [nM] | DC50 (GSPT1; [6]) [nM] | DC50 (GSPT1; [8]) [nM] | SMILES | EC50 [2] [nM] | EC50 [3, 4] [nM] | EC50 [3, 5] [nM] | EC50 [3, 7] [nM] |
| --- | --- | --- | --- | --- | --- | --- | --- |
| 672 | > 300 | – | Cc1ccccc1NC(=O)NCc1ccc2c(c1)C(=O)N(C1CCC(=O)NC1=O)C2 (stereo not drawn) [Compound 37] | > 10000 | > 2000 | – | – |
| 589 | 100 to 300 | – | O=C1CCC(N2Cc3ccc(CNC(=O)Nc4cc(Cl)cc(Cl)c4)cc3C2=O)C(=O)N1 (stereo not drawn) [Compound 38] | > 10000 | ≤ 400 | 161 | – |
| 587 | > 300 | – | O=C1CCC(N2Cc3ccc(CNC(=O)Nc4ccc(F)c(F)c4)cc3C2=O)C(=O)N1 (stereo not drawn) [Compound 39] | > 10000 | > 2000 | – | – |
| 566 | > 300 | – | O=C1CCC(N2Cc3ccc(CNC(=O)NC4CCCc5ccccc54)cc3C2=O)C(=O)N1 (stereo not drawn) [Compound 40] | > 10000 | > 2000 | – | – |
| 590 | 100 to 300 | 172 | O=C1CCC(N2Cc3ccc(CNC(=O)Nc4ccc(C(F)(F)F)cc4)cc3C2=O)C(=O)N1 (stereo not drawn) [Compound 41] | > 10000 | 400 to 2000 | 1100 | ≤ 2000 |
| 589 | 100 to 300 | 253 | O=C1CCC(N2Cc3ccc(CNC(=O)Nc4ccc(F)c(Cl)c4)cc3C2=O)C(=O)N1 (stereo not drawn) [Compound 42] | > 10000 | 400 to 2000 | 1720 | ≤ 2000 |
| 757 | > 300 | – | Cc1cccc(NC(=O)NCc2ccc3c(c2)C(=O)N(C2CCC(=O)NC2=O)C3)c1 (stereo not drawn) [Compound 43] | > 10000 | > 2000 | – | – |
| 747 | > 300 | – | Cc1cccc(NC(=O)NCc2ccc3c(c2)C(=O)N(C2CCC(=O)NC2=O)C3)c1C (stereo not drawn) [Compound 44] | > 10000 | > 2000 | – | – |
| 472 | > 300 | – | O=C1CCC(N2Cc3ccc(CNC(=O)Nc4ccc(Cl)cc4Cl)cc3C2=O)C(=O)N1 (stereo not drawn) [Compound 45] | > 10000 | > 2000 | – | – |
| 1400 | ≤ 100 | – | O=C1CCC(N2Cc3ccc(CNC(=O)Nc4ccc(Cl)c(Cl)c4)cc3C2=O)C(=O)N1 (stereo not drawn) [Compound 46] | > 10000 | 400 to 2000 | 469 | – |
| 1080 | ≤ 100 | – | O=C1CCC(N2Cc3ccc(CNC(=O)Nc4cccc(C(F)(F)F)c4)cc3C2=O)C(=O)N1 (stereo not drawn) [Compound 47] | > 10000 | 400 to 2000 | 544 | – |
| 719 | > 300 | – | O=C1CCC(N2Cc3ccc(CNC(=O)Nc4ccccc4F)cc3C2=O)C(=O)N1 (stereo not drawn) [Compound 48] | > 10000 | > 2000 | – | – |
| 867 | > 300 | – | O=C1CCC(N2Cc3ccc(CNC(=O)Nc4ccccc4C(F)(F)F)cc3C2=O)C(=O)N1 (stereo not drawn) [Compound 49] | > 10000 | > 2000 | – | – |
| 479 | > 300 | – | O=C1CCC(N2Cc3ccc(CNC(=O)Nc4cccc(Cl)c4Cl)cc3C2=O)C(=O)N1 (stereo not drawn) [Compound 50] | > 10000 | > 2000 | – | – |
| 477 | > 300 | – | COc1ccc(CNC(=O)NCc2ccc3c(c2)C(=O)N(C2CCC(=O)NC2=O)C3)cc1 (stereo not drawn) [Compound 52] | > 10000 | > 2000 | – | – |
| 364 | > 300 | – | COc1cccc(CNC(=O)NCc2ccc3c(c2)C(=O)N(C2CCC(=O)NC2=O)C3)c1 (stereo not drawn) [Compound 53] | > 10000 | > 2000 | – | – |
| 471 | > 300 | – | C[C@@H](NC(=O)NCc1ccc2c(c1)C(=O)N(C1CCC(=O)NC1=O)C2)c1ccccc1 (stereo partly drawn) [Compound 54] | > 10000 | > 2000 | – | – |
| 497 | > 300 | – | C[C@H](NC(=O)NCc1ccc2c(c1)C(=O)N(C1CCC(=O)NC1=O)C2)c1ccccc1 (stereo partly drawn) [Compound 55] | > 10000 | > 2000 | – | – |
